Values after ≈ are worked out from the molar mass of the structure shown. Like-named read-outs stand apart in the source and are kept apart here.
Legend:
Assay in all cases: microbe, parasite or virus in culture
[1] = tested on: T1, K. pneumoniae KPC-2; parameters: species or system bacterial strain of the line; Mueller-Hinton agar-dilution MIC, CLSI; concentration at which bacterial growth was no longer observed; conditions: Klebsiella pneumoniae
T1 construct: KPC-2-producing control strain, also producing TEM-1 and SHV-29

[2] = tested on: T2, E. coli DH10B pBC SK; parameters: species or system bacterial strain of the line; Mueller-Hinton agar-dilution MIC, CLSI; concentration at which bacterial growth was no longer observed; conditions: Escherichia coli, empty vector pBC SK
T2 construct: DH10B carries empty vector pBC SK
Method: (§1) Mueller-Hinton (MH) agar-dilution MIC measurements were performed according to Clinical and Laboratory Standards Institute (CLSI) guidelines as previously described ([12], [30]). The MICs are reported as the concentrations at which bacterial growth was no longer observed. Avibactam was tested at a constant 4 µg/ml in combination with its respective antibiotic partners. All MIC measurements were performed at least three times. The impact of site-saturation mutagenesis at Ambler position 179 of KPC-2 on antibiotic resistance was next assessed using whole-cell viability assays. Twenty-four different β-lactam and β-lactam–β-lactamase inhibitor combinations were tested for susceptibility against KPC-2 and the 19 variants expressed in E. coli DH10B cells (Tables 1 and 2). The Klebsiella pneumoniae KPC-2-containing positive-control strain maintained resistance (as defined by Clinical and Laboratory Standards Institute [CLSI] criteria) against all the commercially available β-lactams tested (Table 1).

[3] = tested on: T3, E. coli DH10B; parameters: species or system bacterial strain of the line; Mueller-Hinton agar-dilution MIC, CLSI; concentration at which bacterial growth was no longer observed; conditions: Escherichia coli
T3 construct: DH10B
Method: as §1

[4] = tested on: T4, blaKPC-2 179 Asp (WT) in E. coli DH10B; parameters: species or system E. coli DH10B / K. pneumoniae; Mueller-Hinton agar dilution MIC, CLSI, no visible growth; conditions: Escherichia coli
T4 construct: DH10B expressing blaKPC-2 (wild type)
Method: Mueller-Hinton (MH) agar-dilution MIC measurements were performed according to Clinical and Laboratory Standards Institute (CLSI) guidelines as previously described ([12], [30]). The MICs are reported as the concentrations at which bacterial growth was no longer observed. Avibactam was tested at a constant 4 µg/ml in combination with its respective antibiotic partners. All MIC measurements were performed at least three times.

[5] = BAL, read-out: MIC(s) (µg/ml) / BAL

In the case of `C[C@@H](O)[C@H]1C(=O)N2C(C(=O)O)=C(S[C@@H]3CN[C@H](C(=O)Nc4cccc(C(=O)O)c4)C3)[C@H](C)[C@H]12` [ertapenem], the MIC ([1]; KPC2, read-out: MIC(s) (µg/ml) / ERT) is reported as 32 µg/mL (≈ 67.3 µM), the MIC ([2]; DH10BPBCSK, read-out: MIC(s) (µg/ml) / ERT) is reported as no more than 0.03 µg/mL and the MIC ([3]; DH10B, read-out: MIC(s) (µg/ml) / ERT) is reported as no more than 0.03 µg/mL. The MIC ([4]; read-out: MIC(s) (µg/ml) / ERT) was no more than 0.06 µg/mL.

`CO/N=C(\C(=O)N[C@@H]1C(=O)N2C(C(=O)O)=C(COC(C)=O)CS[C@H]12)c1csc(N)n1` [cefotaxime] gave an MIC ([1]; KPC2, read-out: MIC(s) (µg/ml) / TAX) of 64 µg/mL (≈ 141 µM), an MIC ([2]; DH10BPBCSK, read-out: MIC(s) (µg/ml) / TAX) of no more than 0.06 µg/mL and an MIC ([3]; DH10B, read-out: MIC(s) (µg/ml) / TAX) of no more than 0.06 µg/mL. The MIC ([4]; read-out: MIC(s) (µg/ml) / TAX) was 0.25 µg/mL.

`C[C@@H](O)[C@H]1C(=O)N2C(C(=O)O)=C(S[C@@H]3CN[C@H](CNS(N)(=O)=O)C3)[C@H](C)[C@H]12` [doripenem] showed an MIC ([1]; KPC2, read-out: MIC(s) (µg/ml) / DOR) of 8 µg/mL (≈ 19 µM), an MIC ([2]; DH10BPBCSK, read-out: MIC(s) (µg/ml) / DOR) of no more than 0.06 µg/mL and an MIC ([3]; DH10B, read-out: MIC(s) (µg/ml) / DOR) of no more than 0.06 µg/mL. The MIC ([4]; read-out: MIC(s) (µg/ml) / DOR) was 0.125 µg/mL.

`CC(=O)OCC1=C(C(=O)O)N2C(=O)[C@@H](NC(=O)Cc3cccs3)[C@H]2SC1` [cephalothin] gave an MIC ([1]; KPC2, read-out: MIC(s) (µg/ml) / THIN) of 2050 µg/mL (≈ 5170 µM), an MIC ([2]; DH10BPBCSK, read-out: MIC(s) (µg/ml) / THIN) of 4 µg/mL and an MIC ([3]; DH10B, read-out: MIC(s) (µg/ml) / THIN) of 4 µg/mL. For the same compound, the MIC ([4]; read-out: MIC(s) (µg/ml) / THIN) was 64 µg/mL.

`C[C@H]1[C@H](NC(=O)/C(=N\OC(C)(C)C(=O)O)c2csc(N)n2)C(=O)N1S(=O)(=O)O` [AZT, aztreonam] gave an MIC ([2]; DH10BPBCSK, read-out: MIC(s) (µg/ml) / AZT) of 0.06 µg/mL and an MIC ([3]; DH10B, read-out: MIC(s) (µg/ml) / AZT) of 0.06 µg/mL.

Compound `CO/N=C(\C(=O)N[C@@H]1C(=O)N2C(C(=O)[O-])=C(C[N+]3(C)CCCC3)CS[C@H]12)c1csc(N)n1` [cefepime] has an MIC ([1]; KPC2, read-out: MIC(s) (µg/ml) / FEP) of 64 µg/mL (≈ 133 µM), an MIC ([2]; DH10BPBCSK, read-out: MIC(s) (µg/ml) / FEP) of no more than 0.125 µg/mL and an MIC ([3]; DH10B, read-out: MIC(s) (µg/ml) / FEP) of no more than 0.125 µg/mL. It also gave an MIC ([4]; read-out: MIC(s) (µg/ml) / FEP) of 0.125 µg/mL.

Work on `C[C@@H](O)[C@H]1C(=O)N2C(C(=O)O)=C(S[C@@H]3CN[C@H](C(=O)N(C)C)C3)[C@H](C)[C@H]12` [meropenem] yielded an MIC ([1]; KPC2, read-out: MIC(s) (µg/ml) / MEM) of 16 µg/mL (≈ 41.7 µM), an MIC ([2]; DH10BPBCSK, read-out: MIC(s) (µg/ml) / MEM) of no more than 0.06 µg/mL and an MIC ([3]; DH10B, read-out: MIC(s) (µg/ml) / MEM) of no more than 0.06 µg/mL. The MIC ([4]; read-out: MIC(s) (µg/ml) / MEM) was 0.06 µg/mL.

`CO/N=C(\C(=O)N[C@@H]1C(=O)N2C(C(=O)O)=C(CSc3nc(=O)c(=O)[nH]n3C)CS[C@H]12)c1csc(N)n1` [CRO, ceftriaxone] was tested, and the MIC ([2]; DH10BPBCSK, read-out: MIC(s) (µg/ml) / CRO) was no more than 0.06 µg/mL, the MIC ([3]; DH10B, read-out: MIC(s) (µg/ml) / CRO) was no more than 0.06 µg/mL and the MIC ([4]; read-out: MIC(s) (µg/ml) / CRO) was 0.5 µg/mL.

Compound `CC(C)(O/N=C(\C(=O)N[C@@H]1C(=O)N2C(C(=O)[O-])=C(C[n+]3ccccc3)CS[C@H]12)c1csc(N)n1)C(=O)O` [CAZ, ceftazidime] has an MIC ([1]; KPC2, read-out: MIC(s) (µg/ml) / CAZ) of 64 µg/mL (≈ 117 µM), an MIC ([2]; DH10BPBCSK, read-out: MIC(s) (µg/ml) / CAZ) of 0.25 µg/mL and an MIC ([3]; DH10B, read-out: MIC(s) (µg/ml) / CAZ) of 0.25 µg/mL. It also gave an MIC ([4]; read-out: MIC(s) (µg/ml) / CAZ) of 1 µg/mL.

In the case of `C[C@@H](O)[C@H]1C(=O)N2C(C(=O)O)=C(SCCN=CN)C[C@H]12` [IMI, imipenem], the MIC ([1]; KPC2, read-out: MIC(s) (µg/ml) / IMI) is reported as 16 µg/mL (≈ 53.4 µM), the MIC ([2]; DH10BPBCSK, read-out: MIC(s) (µg/ml) / IMI) is reported as 0.5 µg/mL and the MIC ([3]; DH10B, read-out: MIC(s) (µg/ml) / IMI) is reported as 0.5 µg/mL. It also gave an MIC ([4]; read-out: MIC(s) (µg/ml) / IMI) of 1 µg/mL.

`CCN1CCN(C(=O)N[C@@H](C(=O)N[C@@H]2C(=O)N3[C@@H]2SC(C)(C)[C@@H]3C(=O)O)c2ccccc2)C(=O)C1=O` [piperacillin] showed an MIC ([1]; KPC2, read-out: MIC(s) (µg/ml) / PIP) of 2050 µg/mL (≈ 3960 µM), an MIC ([2]; DH10BPBCSK, read-out: MIC(s) (µg/ml) / PIP) of 2 µg/mL and an MIC ([3]; DH10B, read-out: MIC(s) (µg/ml) / PIP) of 2 µg/mL. It also gave an MIC ([4]; read-out: MIC(s) (µg/ml) / PIP) of 8 µg/mL.

`CC1(C)S[C@@H]2[C@H](NC(=O)[C@H](N)c3ccccc3)C(=O)N2[C@H]1C(=O)O` [ampicillin] was tested, and the MIC ([1]; KPC2, read-out: MIC(s) (µg/ml) / AMP) was greater than 8190 µg/mL, the MIC ([2]; DH10BPBCSK, read-out: MIC(s) (µg/ml) / AMP) was 4 µg/mL and the MIC ([3]; DH10B, read-out: MIC(s) (µg/ml) / AMP) was 8 µg/mL. The MIC ([4]; read-out: MIC(s) (µg/ml) / AMP) was 64 µg/mL.

`CC1(C)[C@H](NC(=O)/C(=N\OCc2cc(=O)c(O)cn2O)c2csc(N)n2)C(=O)N1OS(=O)(=O)O` [BAL30072] showed an MIC [1, 5] of 8 µg/mL (≈ 15.4 µM), an MIC [2, 5] of no more than 0.06 µg/mL and an MIC [3, 5] of no more than 0.06 µg/mL. For the same compound, the MIC [4, 5] was no more than 0.06 µg/mL.

`CCO/N=C(\C(=O)N[C@@H]1C(=O)N2C(C(=O)[O-])=C(Sc3nc(-c4cc[n+](C)cc4)cs3)CS[C@H]12)c1nsc(N)n1` [TAR, ceftaroline] was tested, and the MIC ([1]; KPC2, read-out: MIC(s) (µg/ml) / TAR) was 512 µg/mL (≈ 847 µM), the MIC ([2]; DH10BPBCSK, read-out: MIC(s) (µg/ml) / TAR) was less than 0.06 µg/mL and the MIC ([3]; DH10B, read-out: MIC(s) (µg/ml) / TAR) was 0.06 µg/mL. It also gave an MIC ([4]; read-out: MIC(s) (µg/ml) / TAR) of 1 µg/mL.

— article PMC5666153, “Klebsiella pneumoniae Carbapenemase-2 (KPC-2), Substitutions at Ambler Position Asp179, and Resistance to Ceftazidime-Avibactam: Unique Antibiotic-Resistant Phenotypes Emerge from β-Lactamase Protein Engineering” (mBio, 2017)
